The compounds below were run on Aedes aegypti mosquitoes, insecticide-susceptible Orlando strain (assay: not given). Conditions: 100 μg/cm^2; 1 h; out of 16 females.
Format: in vivo
Description: The tubes as shown were held horizontally on the bench.
For assessing behavioral repellency (FIG. 1), Aedes aegypti mosquitoes were used from the insecticide-susceptible Orlando strain and the pyrethroid-resistant Puerto Rico strain. Sixteen female mosquitoes were transferred to a glass tube (12.5 cm long, 2.5 cm outer diameter) with the ends covered with netting. Each compound was dissolved in 1 mL of acetone and serial dilutions ranging from 30-0.01 μg/ml were made. Circular filter papers (5 cm^2) were saturated with 50 μL of each concentration and allowed 10 min for solvent evaporation. The filter papers were then placed in clear conical polypropylene caps and fixed to the end of the glass tubes. The netting prevented mosquito contact with the filter paper. The tubes were then aligned with a mark denoting the midline and the proportion of mosquitoes on the chemically treated side was scored for up to 60 min. At the end of the test, the tube was placed in a cage and the ability of the mosquitoes to fly out of the tube was assessed for 30 min. […] This post-test evaluated whether any non-responding mosquitoes (not repelled) resulted from intoxication or disorientation from the test chemical. For assessment of lethality, insects were held for 24 hr under constant exposure in glass tubes having treated filter papers.
Compounds were first screened at 100 μg/cm^2 for repellency and 24 h mortality.

SMILES | knockdown in 1 hr repellency test (XXkd = number of insects incapacitated out of 16 females)
CN(C(=O)C(F)(F)C(F)(F)OC(F)(F)F)c1cc(Cl)nc(Cl)c1 [GMR106] | 2
CC(C)(C)OC(=O)N(C(=O)C(F)(F)C(F)(F)F)c1c(Cl)cc(C(F)(F)F)cc1Cl [GMR150] | 11

Same assay, conditions: 1 h; (OR)

SMILES | 1 h Repellency EC50, μg/cm^2 [μg/cm^2]
O=C(Nc1cc(C(F)(F)F)ccn1)C(F)(F)C(F)(F)C(F)(F)F [GMR085] | 49
N#CC(F)(F)C(=O)Nc1cc(F)c(F)c(F)c1 [GMR102] | 28
CC(C(=O)Nc1cc(F)c(F)c(F)c1)(C(F)(F)F)C(F)(F)F [GMR139] | 6.9
CCC(=O)Nc1cccc(OC(F)(F)F)c1 [GMR160] | 123
CCC(=O)N(C(=O)CC)c1cccc(OC(F)(F)F)c1 [GMR161] | 36
O=C(CCl)Nc1ccccc1C(F)(F)F [MTFI-2-1A] | 14
CCCCC(=O)Nc1ccccc1OC(F)(F)F [MTFI-5-8B] | 11

Same assay, conditions: screened at 100 μg/cm^2; 1 h; strain not given

SMILES | 1 h % Repellency, 100 μg/cm^2 [%]
C=CC(=O)Nc1ccccc1NC(=O)C=C [GMR024] | 0
O=C(Nc1ccnc(Br)c1)C(F)(F)C(F)(F)C(F)(F)C(F)(F)C(F)(F)F [GMR069] | −12
O=C(Nc1cc(C(F)(F)F)ccn1)C(F)(F)C(F)(F)C(F)(F)F [GMR085] | 70
O=C(OCc1c(F)c(F)cc(F)c1F)C(F)(F)C(F)(F)C(F)(F)F [GMR090] | −12
O=C(Nc1cc(Cl)cc(Cl)c1)C(F)(F)C(F)(F)OC(F)(F)F [GMR099] | 74
N#CC(F)(F)C(=O)Nc1cc(F)c(F)c(F)c1 [GMR102] | 74
O/N=C(\Nc1cc(Cl)nc(Cl)c1)C(F)(F)C(F)(F)C(F)(F)F [GMR104] | 12
O=C(NCc1cc(Cl)nc(Cl)c1)C(F)(F)C(F)(F)C(F)(F)F [GMR107] | 50
CN(C(=O)C(F)(F)C(F)(F)C(F)(F)F)c1cc(F)c(F)c(F)c1 [GMR113] | 0
CN(C(=O)C(F)(F)C(F)(F)OC(F)(F)F)c1cc(F)c(F)c(F)c1 [GMR114] | 0
CC(=O)Nc1c(Cl)cncc1Cl [GMR130] | 34
CCCC(=O)Nc1c(Cl)cncc1Cl [GMR132] | 4
CC(C(=O)Nc1cc(F)c(F)c(F)c1)(C(F)(F)F)C(F)(F)F [GMR139] | 24
CC(=O)Nc1cc(F)c(F)c(F)c1 [GMR142] | 50
CC1(C)[C@H](C=C(Cl)Cl)[C@H]1C(=O)Nc1cc(F)c(F)c(F)c1 [GMR148] | 12
CCC(=O)Nc1cccc(OC(F)(F)F)c1 [GMR160] | 42
CCC(=O)N(C(=O)CC)c1cccc(OC(F)(F)F)c1 [GMR161] | 74
O=C(CCl)Nc1ccccc1C(F)(F)F [MTFI-2-1A] | 94
CCCCC(=O)Nc1ccccc1OC(F)(F)F [MTFI-5-8B] | 96

Same assay, conditions: structure-activity analysis of Table 2

SMILES | vapor repellency / mortality, statement in words (Example 8)
C=CC(=O)Nc1ccccc1NC(=O)C=C [GMR024] | reduced repellency and poor toxicity
N#CC(F)(F)C(=O)Nc1cc(F)c(F)c(F)c1 [GMR102] | moderate repellency and toxicity
CC(C(=O)Nc1cc(F)c(F)c(F)c1)(C(F)(F)F)C(F)(F)F [GMR139] | reduced repellency

The compounds below were run on Aedes aegypti strain Orlando (sensitive) (assay: Topical toxicity (24 hour mortality), Ae. aegypti Orlando). Conditions: topical application, 24 h mortality, female adults, susceptible Orlando strain.
Format: in vivo
Description: (§1) The Aedes aegypti strains Orlando (sensitive) as well as the Puerto Rico (PR, resistant to permethrin) were used. The Anopheles gambiae (G3 sensitive strain, as well as Akron kdr (Akdr) strain, resistant to pyrethroids were also assessed. The larvae were provided by the USDA, Gainesville Fl, and raised in a pan with tap water maintained at 28° C. Larvae were fed a ground liver and yeast mixture, and pupae were placed in emergence cages. Adults were held at 28° C. and provided with cotton balls soaked in 10% sugar water for rearing and for all bioassays.
(§2) Female adults from 3 to 6 days were used for the experiments. The drug was dissolved in ethanol and then applied with a micro-applicator on the thorax, between the legs: 200 nL of drug per female mosquito, with different concentrations of the drug; 10 mosquitos were treated together per concentration per replicate, and put together in a small container with free access to sweet water. Mortality, i.e. no visible movement, was assessed 24 hours after treatment. Every compound was assessed on at least 3 different cohorts of mosquitoes, and the LD50 values and slopes were determined with Probit analysis, corrected with Abbott's formula.

SMILES | Ae. aegypti OR LD50 [ng/mg]
O=C(Nc1ccnc(Br)c1)C(F)(F)C(F)(F)C(F)(F)C(F)(F)C(F)(F)F [GMR069] | 2261
O=C(Nc1cc(C(F)(F)F)ccn1)C(F)(F)C(F)(F)C(F)(F)F [GMR085] | >6000
O=C(OCc1c(F)c(F)cc(F)c1F)C(F)(F)C(F)(F)C(F)(F)F [GMR090] | >1000
O=C(Nc1cc(Cl)cc(Cl)c1)C(F)(F)C(F)(F)OC(F)(F)F [GMR099] | 3279
N#CC(F)(F)C(=O)Nc1cc(F)c(F)c(F)c1 [GMR102] | 2164
O/N=C(\Nc1cc(Cl)nc(Cl)c1)C(F)(F)C(F)(F)C(F)(F)F [GMR104] | 393
CN(C(=O)C(F)(F)C(F)(F)OC(F)(F)F)c1cc(Cl)nc(Cl)c1 [GMR106] | 846
O=C(NCc1cc(Cl)nc(Cl)c1)C(F)(F)C(F)(F)C(F)(F)F [GMR107] | 2173
CC(C)(C)OC(=O)N(C(=O)C(F)(F)C(F)(F)F)c1c(Cl)cc(C(F)(F)F)cc1Cl [GMR150] | 629

What follows are compounds tested on Anopheles gambiae G3 sensitive strain (assay: Topical toxicity (24 hour mortality), An. gambiae G3). Conditions: topical application, 24 h mortality, female adults, susceptible strain G3.
Format: in vivo
Description: as §1, §2

SMILES | An. gambiae G3 LD50 [ng/mg]
O=C(Nc1cc(C(F)(F)F)ccn1)C(F)(F)C(F)(F)C(F)(F)F [GMR085] | >100
O=C(OCc1c(F)c(F)cc(F)c1F)C(F)(F)C(F)(F)C(F)(F)F [GMR090] | >100
O=C(Nc1cc(Cl)cc(Cl)c1)C(F)(F)C(F)(F)OC(F)(F)F [GMR099] | >1000
N#CC(F)(F)C(=O)Nc1cc(F)c(F)c(F)c1 [GMR102] | >100
O/N=C(\Nc1cc(Cl)nc(Cl)c1)C(F)(F)C(F)(F)C(F)(F)F [GMR104] | >100
CN(C(=O)C(F)(F)C(F)(F)OC(F)(F)F)c1cc(Cl)nc(Cl)c1 [GMR106] | >1000

The compounds below were run on Anopheles gambiae Akron kdr (Akdr) strain, resistant to pyrethroids (assay: Topical toxicity (24 hour mortality), An. gambiae Akdr). Conditions: topical application, 24 h mortality, female adults, pyrethroid-resistant Akdr strain.
Format: in vivo
Description: as §1, §2

SMILES | An. gambiae AKDR LD50 [ng/mg]
O=C(Nc1ccnc(Br)c1)C(F)(F)C(F)(F)C(F)(F)C(F)(F)C(F)(F)F [GMR069] | 3425
O=C(Nc1cc(C(F)(F)F)ccn1)C(F)(F)C(F)(F)C(F)(F)F [GMR085] | >50
O=C(OCc1c(F)c(F)cc(F)c1F)C(F)(F)C(F)(F)C(F)(F)F [GMR090] | >100
O=C(Nc1cc(Cl)cc(Cl)c1)C(F)(F)C(F)(F)OC(F)(F)F [GMR099] | >1000
N#CC(F)(F)C(=O)Nc1cc(F)c(F)c(F)c1 [GMR102] | >100

Each compound was assayed on Aedes aegypti mosquitoes, insecticide-susceptible Orlando strain (assay: not given). Conditions: 24 h; LC50 (OR).

SMILES | 24 h LC50, μg/cm^2 [μg/cm^2]
CC(C(=O)Nc1cc(F)c(F)c(F)c1)(C(F)(F)F)C(F)(F)F [GMR139] | 16.6
CC(C)(C)OC(=O)N(C(=O)C(F)(F)C(F)(F)F)c1c(Cl)cc(C(F)(F)F)cc1Cl [GMR150] | 12
CCC(=O)N(C(=O)CC)c1cccc(OC(F)(F)F)c1 [GMR161] | 52
O=C(CCl)Nc1ccccc1C(F)(F)F [MTFI-2-1A] | 14

Same assay, conditions: in vivo

SMILES | 24 h % Mortality, 100 μg/cm^2 [%]
CN(C(=O)C(F)(F)C(F)(F)OC(F)(F)F)c1cc(Cl)nc(Cl)c1 [GMR106] | 100

Each compound was assayed on Aedes aegypti mosquitoes, insecticide-susceptible Orlando strain (assay: whole plant or invertebrate). Conditions: 24 h, read-out: 24 h % Mortality, 100 μg/cm^2.

SMILES | mortality at 100 µg/cm2 [%]
C=CC(=O)Nc1ccccc1NC(=O)C=C [GMR024] | 3
O=C(Nc1ccnc(Br)c1)C(F)(F)C(F)(F)C(F)(F)C(F)(F)C(F)(F)F [GMR069] | 13
O=C(Nc1cc(C(F)(F)F)ccn1)C(F)(F)C(F)(F)C(F)(F)F [GMR085] | 13
O=C(OCc1c(F)c(F)cc(F)c1F)C(F)(F)C(F)(F)C(F)(F)F [GMR090] | 9
O=C(Nc1cc(Cl)cc(Cl)c1)C(F)(F)C(F)(F)OC(F)(F)F [GMR099] | 81
N#CC(F)(F)C(=O)Nc1cc(F)c(F)c(F)c1 [GMR102] | 22
O/N=C(\Nc1cc(Cl)nc(Cl)c1)C(F)(F)C(F)(F)C(F)(F)F [GMR104] | 0
O=C(NCc1cc(Cl)nc(Cl)c1)C(F)(F)C(F)(F)C(F)(F)F [GMR107] | 0
CN(C(=O)C(F)(F)C(F)(F)C(F)(F)F)c1cc(F)c(F)c(F)c1 [GMR113] | 6
CN(C(=O)C(F)(F)C(F)(F)OC(F)(F)F)c1cc(F)c(F)c(F)c1 [GMR114] | 6
CC(=O)Nc1c(Cl)cncc1Cl [GMR130] | 81
CCCC(=O)Nc1c(Cl)cncc1Cl [GMR132] | 28
CC(C(=O)Nc1cc(F)c(F)c(F)c1)(C(F)(F)F)C(F)(F)F [GMR139] | 100
CC(=O)Nc1cc(F)c(F)c(F)c1 [GMR142] | 66
CC1(C)[C@H](C=C(Cl)Cl)[C@H]1C(=O)Nc1cc(F)c(F)c(F)c1 [GMR148] | 6
CC(C)(C)OC(=O)N(C(=O)C(F)(F)C(F)(F)F)c1c(Cl)cc(C(F)(F)F)cc1Cl [GMR150] | 100
CCC(=O)Nc1cccc(OC(F)(F)F)c1 [GMR160] | 16
CCC(=O)N(C(=O)CC)c1cccc(OC(F)(F)F)c1 [GMR161] | 72
O=C(CCl)Nc1ccccc1C(F)(F)F [MTFI-2-1A] | 100
CCCCC(=O)Nc1ccccc1OC(F)(F)F [MTFI-5-8B] | 13

— patent US20230337677A1, “ARYL AND PYRIDYL AMIDE PESTICIDES AND COMPOSITIONS THEREOF” (University of Florida Research Foundation, Incorporated, priority 2019, published 2023)
